The results in this text go back to US12655150B2 (Cedilla Therapeutics, Inc., priority 2021, dated 2026).

Assay [1] concerns NCI-H226. Briefly: 72H TEAD Proliferation Assay (Cell Titer Glo 2.0). The following applies: Homo sapiens, NCI-H226, 72 h, CTG 2.0, cell line not given (NCI-H226 responsive, NCI-H28 non-responsive). The class given is cell-based. The method in brief: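 Growth read-out is ATP luminescence (CellTiter-Glo 2.0) after 72 h compound exposure, corrected for no-CTG background and day-0 values, with GI50 from nonlinear regression. Sensitive line NCI-H226 (NF2-deficient); non-responsive NCI-H28 (NF2 wild type) distinguishes TEAD-driven from nonspecific growth inhibition.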
(In ATP-based viability assays light output follows the ATP content of the culture.)

The test system of assay [2] is EGFR-mutant NSCLC PC-9 cells. Briefly: Apoptosis (caspase 3/7, IncuCyte) in combination with EGFR inhibitor. The following applies: apoptotic index. The class given is cell-based. The procedure: Apoptosis was detected by CellEvent Caspase 3/7 Green ReadyProbes Reagent (ThermoFisher), a fluorogenic indicator of activated caspase-3/7. Cell death (apoptsis) and cell growth (phase confluence) over time were captured by IncuCyte live cell imaging system (Essen Bioscience) and quantified by IncuCyte S3 software (Essen Bioscience). Apoptotic Index was calculated by dividing apoptosis signal with phase confluence.

On to `CC(C)(C)c1ccc(-c2nc3cc(C(=O)O)ccc3n3cccc23)cc1` [I-41, 4-(4-(tert-butyl)phenyl)pyrrolo[1,2-a]quinoxaline-7-carboxylic acid], for which, in assay [1], the GI50 was at most 1000 nM. Moreover, the “Fold Change over DMSO at 48 hrs” value in assay [2] (I-41 (10 μM) alone) was determined as 1.1; in assay [2] (Osimertinib (100 nM) + I-41 (0.37 μM)) it was 4.3; in assay [2] (Osimertinib (100 nM) + I-41 (1.1 μM)) it was 4.9; in assay [2] (Osimertinib (100 nM) + I-41 (10 μM)), 5.5.
With `C=CC(=O)Nc1cc(Nc2nccc(-c3cn(C)c4ccccc34)n2)c(OC)cc1N(C)CCN(C)C` [Osimertinib, reference compound], the “Fold Change over DMSO at 48 hrs” value in assay [2] (Osimertinib (100 nM) alone) is on record as 2.6.
As for `C=CC(=O)Nc1ccc2cc(C)c(-c3ccc(C(C)(C)C)cc3)nc2c1` [I-98, N-(2-(4-(tert-butyl)phenyl)-3-methylquinolin-7-yl)acrylamide], the GI50 in assay [1] is at most 1000 nM.
Still for that read-out and setting: the figure for `CC(C)(C)c1ccc(-c2nc3cc(-c4nnc(N)o4)ccc3n3cccc23)cc1` [I-189, 5-(4-(4-(tert-butyl)phenyl)pyrrolo[1,2-a]quinoxalin-7-yl)-1,3,4-oxadiazol-2-amine] is 5000 to 10000 nM; for `CC(C)(C)c1ccc(-c2nc3cc(C(=O)O)ccc3n3ccc(F)c23)cc1` [I-115, 4-(4-(tert-Butyl)phenyl)-3-fluoropyrrolo[1,2-a]quinoxaline-7-carboxylic acid] it is at most 1000 nM.
Still for that read-out and setting: the figure for `C=CC(=O)NCc1nc(-c2ccc(C(F)(F)F)cc2)c2ccc(F)cc2n1` [I-445, N-((7-fluoro-4-(4-(trifluoromethyl)phenyl)quinazolin-2-yl)methyl)acrylamide] is at most 1000 nM; for `O=C(O)c1ccc2c(c1)nc(-c1ccc(C(F)(F)F)cc1)c1nccn12` [I-61, 4-(4-(Trifluoromethyl)phenyl)imidazo[1,2-a]quinoxaline-7-carboxylic acid] it is 1000 to 5000 nM.
`O=C(O)c1ccc2c(c1)nc(-c1ccc(F)cc1)c1cccn12` [I-43, 4-(4-Fluorophenyl)pyrrolo[1,2-a]quinoxaline-7-carboxylic acid] yielded a GI50 in assay [1] above 10000 nM.
Still for that read-out and setting: the value for `C=CC(=O)Nc1ccc2c(c1)nc(-c1ccc(C(C)(C)C)cc1)c1nccn12` [I-91, N-(4-(4-(tert-butyl)phenyl)imidazo[1,2-a]quinoxalin-7-yl)acrylamide] was at most 1000 nM.
On to `C=CC(=O)NCc1cn2ccnc2c(-c2ccc(C(F)(F)F)cc2)n1` [I-109, N-((8-(4-(trifluoromethyl)phenyl)imidazo[1,2-a]pyrazin-6-yl)methyl)acrylamide], for which the GI50 in assay [1] is at most 1000 nM.
The same measure, in the same setting: the value for `O=C(O)c1ccc2c(c1)nc(N1CCC3(CC1)CC3)c1cncn12` [I-116, 4-(6-Azaspiro[2.5]octan-6-yl)imidazo[1,5-a]quinoxaline-7-carboxylic acid] was above 10000 nM; that for `CCOc1cc(-c2ccc(C(F)(F)F)cc2)nc2cc(C(=O)O)ccc12` [I-393, 4-ethoxy-2-(4-(trifluoromethyl)phenyl)quinoline-7-carboxylic acid] was at most 1000 nM.
The same measure, in the same setting: the figure for `CS(=O)(=O)NCc1cn2cccc2c(-c2ccc(C(F)(F)F)cc2)n1` [I-320, N-((1-(4-(trifluoromethyl)phenyl)pyrrolo[1,2-a]pyrazin-3-yl)methyl)methanesulfonamide] is 1000 to 5000 nM.

What is called GI50 is the concentration giving 50% growth inhibition. Read a low GI50 as greater sensitivity of the cells.
